Measurements taken from US20030064426A1, “Reagents and methods for identifying and modulating expression of genes regulated by CDK inhibitors” (priority 2001, published 2003).

How the values were obtained:
[1] = test system: induction of luciferase expression by p21 from the NK4 promoter in LuNK4p21 cells; experiment: Luciferase assay in LuNK4p21 cell line (NK4 promoter-luciferase, IPTG-inducible p21); assay type: cell-based, human; details: for induction of luciferase expression by IPTG in the presence of NSAID: 20 hr treatment after 16 hrs with 50 μM IPTG
Experimental: To develop a stably transfected cell line with p21-regulated luciferase expression, the NK4 promoter-luciferase construct, described in Example 8 and termed pLuNK4, was introduced into HT1080 p21-9 cells, which carry IPTG-inducible p21, by cotransfection with pBabePuro carrying puromycin N-acetyltransferase as a selectable marker. Transfection was carried out using LIPOFECTAMTNE 2000 (Life Technologies, Inc., Gaithersburg, Md.), using a 10:1 ratio of pLuNK4 and pBabePuro. Stable transfectants were selected using 1 μg/mL puromycin for 5 days.
This assay was performed as follows. Cells were plated at a density of 40,000 cells/well in 12 well plates in 1 mL of media containing penicillin/streptomycin, glutamine and 10% fetal calf serum (FCS). After attachment, cells were treated with 50 μM IPTG or left untreated for different periods of time. Luciferase activity was then measured as described in Example 8 above. An additional aliquot was removed from the cell lysate to measure protein concentration using the Bio-Rad protein assay kit (Bradford assay). Luciferase activity for each sample was normalized to protein content and expressed as luciferase activity/μg protein.
Luciferase assays were performed substantially as described in Example 9. Luciferase activity was measured after 16 hrs of incubation with or without 50 μM IPTG, followed by an additional 20 hr treatment in the presence or in the absence of 20 mM sodium salicylate, 1 mM sulindac, or 10 mM aspirin. […] NSAID concentrations were based on the pharmacologic concentrations of these agents in the serum of patients required for their anti-inflammatory properties (Yin et al., 1998, ibid.).

[2] = test system: NFκB transcriptional activity (pNFkB-Luc) in HT1080 p21-9 cells; experiment: Transient transfection assay with pNFkB-Luc in HT1080 p21-9 cells; assay type: cell-based, human; details: 50 μM IPTG three days; pNFkB-Luc mixed with negative control E1AΔN/C
Experimental: Plasmid clones for each promoter construct were tested for p21-regulation by a transient transfection assay. Transient transfection of HT1080 p21-9 cells was carried out by electroporation, essentially as described in the Bio-Rad protocols. For each electroporation, p21-9 cells were grown to confluence in 15 cm plates using DMEM supplemented with 10% FC2 serum and containing penicillin, streptomycin and glutamine.. The cells were then trypsinized, resuspended in Opti-MEM medium (GibcoBRL) and spun down at 1,000 rpm in an IEC HN-SII centrifuge for 10 minutes. Following centrifugation the media were aspirated and the cells were again resuspended in Opti-MEM at a concentration of 18-20 million cells per ml. […] In preliminary experiments, cell survival and attachment after electroporation was determined to be approximately 33%. […] Luciferase activity was measured using a Turner 20/20 luminometer at 52.1% sensitivity with a 5 second delay period and 10-15 second integration time.
To determine if IPTG-inducible p21 expression in HT 1080 p21-9 cells stimulates the transcriptional activity of NFκB, we have used transient transfection assays to investigate the effect of p21 induction on luciferase expression from the plasmid pNFkB-Luc, commercially available from Stratagene. […] The luciferase activity was measured and normalized to protein content in each sample.

[3] = test system: human fibrosarcoma cell line HS 15.T; experiment: Mitogenic activity assay, 3H-thymidine incorporation; assay type: cell-based; details: HS 15.T cells
Experimental: (§1) To verify the induction of secreted mitogenic and anti-apoptotic factors by p21, conditioned media from IPTG-treated p21-9 cells were tested to investigate whether they would have an effect on cell growth and apoptosis. In these experiments, conditioned media were prepared by plating 10^6 p21-9 cells per 15 cm plate in the presence of DMEM/10% FCS. The next day, IPTG was added to a final concentration of 50 μM, and this media was replaced three days later with DMEM supplemented with 0.5% FCS and 50 μM IPTG. Two days later (days 3-5 of IPTG treatment), this conditioned media was collected and stored at 4° C. up to 15 days before use. Control media were prepared by adding IPTG-free DMEM/0.5% FCS to untreated cells grown to the same density as IPTG-treated cells and collecting the media two days thereafter.
The slow-growing human fibrosarcoma cell line HS 15.T was used to detect mitogenic activity in these conditioned media. For mitogenic activity assays, both types of conditioned media, as well as fresh media and 1:1 mixtures of conditioned media and fresh media were used to test mitogenic activity. In these experiments, the conditioned media were supplemented with 1% or 2% FCS. […] Cells were then collected and their ^3H-thymidine incorporation determined as described by Mosca et al. (1992, Mol. Cell. Biol. 12: 4375-4383).

[4] = test system: mouse embryo fibroblast line C8; experiment: Apoptosis assay in serum-starved C8 cells; assay type: cell-based
Experimental: as §1
The effect of this conditioned media on apoptosis was also determined. These experiments used a mouse embryo fibroblast line C8, immortalized by E1A. […] Apoptosis was analyzed by plating 3×10^5 C8 cells per 6-cm plate, and replacing the media on the following day with fresh media supplemented with 0.4% serum or with conditioned media (no fresh serum added). DNA content analysis and DAPI staining were carried out after 24 hrs and 48 hrs, and relative cell numbers were measured by methylene blue staining (Perry et al., 1992, Mutat. Res. 276: 189-197) after 48 hrs in low-serum media.

[5] = test system: RNA expression of the endogenous p21-inducible genes in LuNK4p21 cells; experiment: RT-PCR of endogenous p21-inducible genes in LuNK4p21 cells; assay type: cell-based, human
Experimental: To determine whether NFκB-inhibiting NSAID inhibited not only the induction of transcription from the NK4 promoter but also RNA expression of the endogenous p21-inducible genes, LuNK4p21 cells were plated at 125,000 cells per well in 6-well plates and were either untreated or treated with 50 μM IPTG for 48 hrs (the period of time required for maximal stimulation of p21 -inducible genes; Chang et al., 2000, Proc. Natl. Acad. Sci. USA 97: 4291-4296), in the presence or in the absence of sulindac, at 250 μM, 500 μM or 1 mM concentrations. After this incubation, RNA was extracted from the cells using Qiagen RNeasy Mini Kit, and relative RNA levels of several p21-inducible genes were determined by reverse transcription-PCR (RT-PCR), essentially as described by Noonan et al. (1990, Proc. Natl. Acad. Sci. USA 87: 7160-7164), except that β-actin rather than β2-microglobulin was used for cDNA normalization. The PCR cycles were as follows: for the 1st cycle, 3 min for denaturation, 2 min for annealing and 2 min for extension, and the rest of cycles, 30 sec for denaturation; 30 sec for annealing; and 1 min for extension.

[6] = sulindac 250 μM, 500 μM or 1 mM

CC(C)S[C@@H]1O[C@H](CO)[C@H](O)[C@H](O)[C@H]1O [IPTG, isopropyl-β-thiogalactoside]
increase of luciferase expression by IPTG ([1]; 50 μM IPTG, absence of NSAID): 3-4 fold
increase in luciferase levels in IPTG-treated cells ([1]; LuNK4p21 cell line, about 17 hrs): approximately 3 fold
induction of pNFkB-Luc luciferase in the presence of IPTG [2]: up to 15 fold
effect of the addition of IPTG to fresh media on 3H-thymidine incorporation [3]: no effect
effect of IPTG by itself on apoptosis [4]: no effect

CC(=O)Oc1ccccc1C(=O)O [aspirin]
induction of luciferase expression by IPTG in the presence of NSAID ([1]; 10 mM aspirin): completely or almost completely abolished

CC(C)Cc1ccc(C(C)C(=O)O)cc1 (stereo not shown) [ibuprofen]
induction of luciferase expression by IPTG in the presence of NSAID ([1]; 25 μM): no significant difference

COc1ccc2c(c1)c(CC(=O)O)c(C)n2C(=O)c1ccc(Cl)cc1 [indomethacin]
induction of luciferase expression by IPTG in the presence of NSAID ([1]; 25 μM): no significant difference

O=C([O-])c1ccccc1O.[Na+] [salicylate, sodium salicylate]
induction of luciferase expression by IPTG in the presence of NSAID ([1]; 20 mM sodium salicylate): completely or almost completely abolished

CC1=C(CC(=O)O)c2cc(F)ccc2/C1=C\c1ccc([S+](C)[O-])cc1 (stereo not shown) [sulindac]
induction of luciferase expression by IPTG in the presence of NSAID ([1]; 1 mM sulindac): completely or almost completely abolished
effects of IPTG on the APP gene (RT-PCR) ([5]; 250 and 500 μM sulindac): diminished
gene expression of all the other tested genes (RT-PCR) ([5]; absence of IPTG, sulindac 250 μM, 500 μM or 1 mM): dose-dependent increase
NK4 gene expression (RT-PCR) ([5]; absence of IPTG, sulindac 250 μM, 500 μM or 1 mM, 48 hrs): very little effect
ability of p21 to induce transcription for most of the tested genes ([5]; moderate dose of sulindac (250 μM)): inhibits
effects of IPTG on the CTGF gene (RT-PCR) ([5]; only by 250 μM sulindac): diminished
effects of IPTG on the Mac2-binding protein (Mac2-BP) gene (RT-PCR) ([5]; only by 250 μM sulindac): diminished
effects of IPTG on the p66Shc gene (RT-PCR) ([5]; only by 250 μM sulindac): diminished
NK4 RNA levels (RT-PCR) ([5]; presence of 50 μM IPTG, sulindac 250 μM, 500 μM or 1 mM, 48 hrs): dose-dependent decrease
gene expression of the other tested genes (RT-PCR) ([5]; presence of IPTG, highest tested dose of sulindac (1 mM)): did not decrease
IPTG-induced RNA levels of prosaposin (RT-PCR) [5, 6]: None of the tested sulindac concentrations produced a significant decrease
IPTG-induced RNA levels of superoxide dismutase 2 (SOD2) (RT-PCR) [5, 6]: None of the tested sulindac concentrations produced a significant decrease
t-TGase RNA (RT-PCR), compared with NK4 ([5]; with and without 50 μM IPTG, sulindac 250 μM, 500 μM or 1 mM, 48 hrs): Very similar results
